These results are taken from ChEMBL document CHEMBL1150553, “Diaryl phosphate derivatives act as pro-drugs of AZT with reduced cytotoxicity compared to the parent nucleoside” (Bioorg Med Chem Lett, 1994).

The structures appear in SMILES notation.

Assay [1] has as its system MT4. Description: In vitro inhibitory activity against replication of HIV-2 in human lymphocyte MT-4 cells. Format: functional, cell-based.
For assay [2], the system named is MT4. Kind of assay: In vitro inhibitory activity against replication of HIV-1 in human lymphocyte MT-4 cells. Format: functional, cell-based.
Assay [3] concerns CCRF-CEM. Description: In vitro inhibitory activity against replication of HIV-1 in human lymphocyte CEM cells. It counts as functional, cell-based.
For assay [4], the system named is CCRF-CEM. Kind of assay: In vitro inhibitory activity against replication of HIV-2 in human lymphocyte thymidine kinase deficient CEM cells. Format: functional, cell-based.
In assay [5] the test system is MT4. Description: Cytotoxicity against human lymphocyte MT-4 cells. Format: functional.
The subject of assay [6] is CCRF-CEM. Kind of assay: In vitro inhibitory activity against replication of HIV-2 in human lymphocyte CEM cells. Format: functional, cell-based.

In the case of `Cc1cn(C2CC(N=[N+]=[N-])C(COP(=O)(Oc3ccccc3[N+](=O)[O-])Oc3ccccc3[N+](=O)[O-])O2)c(=O)[nH]c1=O` (configuration not stated), the EC50 with MT4 [1] is 14 nM; in the assay with MT4 [2], 12.1 nM; with CCRF-CEM [3], 5.3 nM; with CCRF-CEM [4], greater than 100000 nM; in the assay on CCRF-CEM [6], 6.2 nM. Also, the midpoint of cytotoxicity in the assay on MT4 [5], the CC50, lay at 42000 nM.

With `Cc1cn(C2CC(N=[N+]=[N-])C(COP(=O)(Oc3cccc([N+](=O)[O-])c3)Oc3cccc([N+](=O)[O-])c3)O2)c(=O)[nH]c1=O` (configuration not stated), the half-maximal effective concentration (EC50) with MT4 [1] is 3.1 nM; with MT4 [2], 2.5 nM; in the assay on CCRF-CEM [3] it was 3.8 nM; in the assay on CCRF-CEM [4], 85000 nM; in the assay on CCRF-CEM [6], 3.8 nM. In the assay on MT4 [5], this compound displayed a CC50 of 36000 nM.

For `Cc1cn(C2CC(N=[N+]=[N-])C(COP(=O)(Oc3ccc([N+](=O)[O-])cc3)Oc3ccc([N+](=O)[O-])cc3)O2)c(=O)[nH]c1=O` (configuration not stated), the 50% effective concentration (EC50) in the assay with MT4 [1] came out at 10 nM; with MT4 [2] it was 13 nM; with CCRF-CEM [3], 9 nM; in the assay on CCRF-CEM [4], 50000 nM; in the assay with CCRF-CEM [6], 15 nM. For the same compound, the CC50 in the assay on MT4 [5] turned out to be 50000 nM.

Turning to `Cc1cn([C@H]2C[C@H](N=[N+]=[N-])[C@@H](CO)O2)c(=O)[nH]c1=O` [ZIDOVUDINE], the EC50 in the assay on MT4 [2] is 2.5 nM; with CCRF-CEM [4], greater than 100000 nM; in the assay on CCRF-CEM [6], 3.5 nM. Besides, the half-maximal cytotoxic concentration (CC50) in the assay on MT4 [5] turned out to be 6000 nM.
